What was measured:
Format in all cases: physicochemical
[1] = Moisture absorption test on amorphous α-D-glucosyl α-D-galactoside; details: 25° C.; for Diffraction spectrum: powdery X-ray diffraction
Method: The crystalline powder of α-D-glucosyl α-D-galactoside obtained in Experiment 3 was examined for crystallinity by powdery X-ray diffraction analysis by using “GEIGERFLEX RAD-IIB™”, an X-ray diffraction analyzer using Cuk α ray commercialized by Rigaku Corporation, Tokyo, Japan, to obtain a spectrum as shown in FIG. 3 having peaks with diffraction angles (2θ) of at least 13.4°, 17.4°, 19.7°, and 22.3°. Crystallinity of the crystallized powder was calculated to be about 72.5% by using “Program for Crystallinity Analysis by Ruland method”, a computer program installed in the analyzer.
(§1) A half gram aliquots of the crystalline powder of α-D-glucosyl α-D-galactoside obtained in Experiment 3 were placed in aluminum weighing cans, which had been precisely weighed in advance, and each weighing can was weighed. The weight of each weighing can was subtracted from the total weight to calculate the starting weight of the crystalline powder of α-D-glucosyl α-D-galactoside. Each weighing can with the crystalline powder of α-D-glucosyl α-D-galactoside was placed in a glass desiccator which the relative humidity was controlled to a level of 33–99% in advance, and stored at 25° C. for one to seven days while keeping at the desired humidity. After the moisture absorption test, each weighing can had been precisely weighted and calculated for increasing weight to obtain a moisture absorption level (%). In the test, the crystalline powder was macroscopically observed.
The crystalline powder of α-D-glucosyl α-D-galactoside obtained in Experiment 3 was dissolved in water to obtain an aqueous solution with a concentration of 30% (w/w). The resultant aqueous solution was frozen and dried into an amorphous powder of α-D-glucosyl α-D-galactoside. Similar as in Experiment 10, the obtained amorphous powder was placed in aluminum weighing cans, and the cans were placed in a glass desiccator which the relative humidity was controlled to a level of 43–90% in advance, and stored at 25° C. for one to seven days while keeping at the desired humidity. After the moisture absorption test, moisture absorption level (%) was calculated similarly as in Experiment 10. In the test, the appearance of each powder was macroscopically observed. Samples after a storage for seven days were confirmed for their appearance by a powdery X-ray diffraction analysis in Experiment 4, and samples with crystals were examined for their crystallinity.

[2] = Saturated concentration for water; details: shaken 48 hours, d.s.b.
Method: A surplus volume of the crystalline powder of α-D-glucosyl α-D-galactoside obtained in Experiment 3 was added to 10 ml of distilled water, shaken at 25° C. or 40° C. for 48 hours, and filtrated to collect a crystalline powder, which is more than the solubility, by using a 0.45 μm filter, followed by collecting two filtrates (saturated solutions). Moisture content of the filtrates was measured by using a desiccating agent method described in “Standard Methods of Analysis in Food Safety Regulation, Chemistry” published by Japan Food Hygiene Association under the editorship of Ministry of Health, Labor and Welfare, 1991, to examine a saturated concentration of α-D-glucosyl α-D-galactoside.

[3] = Moisture absorption test on crystalline α-D-glucosyl α-D-galactoside; details: 25° C.
Excerpt: as §1

[4] = relative humidity 43%, storage for one day
[5] = relative humidity 43%, storage for seven days
[6] = relative humidity 53%, storage for one day
[7] = relative humidity 53%, storage for seven days
[8] = relative humidity 60%, storage for one day
[9] = relative humidity 60%, storage for seven days
[10] = relative humidity 90%, storage for one day
[11] = relative humidity 90%, storage for seven days
[12] = relative humidity 33%, storage one day
[13] = relative humidity 33%, storage seven days
[14] = relative humidity 33%, storage three days
[15] = relative humidity 33%, storage two days
[16] = relative humidity 43%, storage one day
[17] = relative humidity 43%, storage seven days
[18] = relative humidity 43%, storage three days
[19] = relative humidity 43%, storage two days
[20] = relative humidity 53%, storage one day
[21] = relative humidity 53%, storage seven days
[22] = relative humidity 53%, storage three days
[23] = relative humidity 53%, storage two days
[24] = relative humidity 60%, storage one day
[25] = relative humidity 60%, storage seven days
[26] = relative humidity 60%, storage three days
[27] = relative humidity 60%, storage two days
[28] = relative humidity 75%, storage one day
[29] = relative humidity 75%, storage seven days
[30] = relative humidity 75%, storage three days
[31] = relative humidity 75%, storage two days
[32] = relative humidity 84%, storage one day
[33] = relative humidity 84%, storage seven days
[34] = relative humidity 84%, storage three days
[35] = relative humidity 84%, storage two days
[36] = relative humidity 90%, storage one day
[37] = relative humidity 90%, storage seven days
[38] = relative humidity 90%, storage three days
[39] = relative humidity 90%, storage two days

Compound: OC[C@H]1O[C@H](O[C@H]2O[C@H](CO)[C@@H](O)[C@H](O)[C@H]2O)[C@H](O)[C@@H](O)[C@H]1O [amorphous α-D-glucosyl α-D-galactoside, α-D-glucosyl α-D-galactoside]
- A(%)* Moisture absorption level [1, 4]: 4.5%
- Appearance (macroscopically observed) [1, 4]: Solidified
- A(%)* Moisture absorption level [1, 5]: 6.3%
- Appearance (macroscopically observed) [1, 5]: Solidified
- Diffraction spectrum [1, 5]: Amorphous
- A(%)* Moisture absorption level [1, 6]: 3.5%
- Appearance (macroscopically observed) [1, 6]: Wet on the surface
- A(%)* Moisture absorption level [1, 7]: 1.8%
- Appearance (macroscopically observed) [1, 7]: Hardened
- Crystallinity [1, 7]: 67%
- Diffraction spectrum [1, 7]: Crystal monohydrate
- A(%)* Moisture absorption level [1, 8]: 3.1%
- Appearance (macroscopically observed) [1, 8]: Wet on the surface
- A(%)* Moisture absorption level [1, 9]: 2.0%
- Appearance (macroscopically observed) [1, 9]: Hardened
- Crystallinity [1, 9]: 71%
- Diffraction spectrum [1, 9]: Crystal monohydrate
- A(%)* Moisture absorption level [1, 10]: 13.2%
- Appearance (macroscopically observed) [1, 10]: Partial deliquescence
- A(%)* Moisture absorption level [1, 11]: 36.2%
- Appearance (macroscopically observed) [1, 11]: Deliquescence
- moisture absorption (in words) ([1]; relative humidity of 43–90%, one to seven days): remarkably absorbed moisture

Compound: OC[C@H]1O[C@H](O[C@H]2O[C@H](CO)[C@@H](O)[C@H](O)[C@H]2O)[C@H](O)[C@@H](O)[C@H]1O [crystalline α-D-glucosyl α-D-galactoside, α-D-glucosyl α-D-galactoside]
- saturated concentration in water ([2]; 25° C.): 68.9 % (w/w)
- saturated concentration in water ([2]; 40° C.): 71.8 % (w/w)
- A(%) Moisture absorption level [3, 12]: 0.0%
- Appearance [3, 12]: Unchanged
- A(%) Moisture absorption level [3, 13]: 0.0%
- Appearance [3, 13]: Unchanged
- A(%) Moisture absorption level [3, 14]: 0.0%
- Appearance [3, 14]: Unchanged
- A(%) Moisture absorption level [3, 15]: 0.0%
- Appearance [3, 15]: Unchanged
- A(%) Moisture absorption level [3, 16]: 0.0%
- Appearance [3, 16]: Unchanged
- A(%) Moisture absorption level [3, 17]: 0.0%
- Appearance [3, 17]: Unchanged
- A(%) Moisture absorption level [3, 18]: 0.0%
- Appearance [3, 18]: Unchanged
- A(%) Moisture absorption level [3, 19]: 0.0%
- Appearance [3, 19]: Unchanged
- A(%) Moisture absorption level [3, 20]: 0.0%
- Appearance [3, 20]: Unchanged
- A(%) Moisture absorption level [3, 21]: 0.1%
- Appearance [3, 21]: Unchanged
- A(%) Moisture absorption level [3, 22]: 0.0%
- Appearance [3, 22]: Unchanged
- A(%) Moisture absorption level [3, 23]: 0.0%
- Appearance [3, 23]: Unchanged
- A(%) Moisture absorption level [3, 24]: 0.1%
- Appearance [3, 24]: Unchanged
- A(%) Moisture absorption level [3, 25]: 0.2%
- Appearance [3, 25]: Unchanged
- A(%) Moisture absorption level [3, 26]: 0.1%
- Appearance [3, 26]: Unchanged
- A(%) Moisture absorption level [3, 27]: 0.1%
- Appearance [3, 27]: Unchanged
- A(%) Moisture absorption level [3, 28]: 0.1%
- Appearance [3, 28]: Unchanged
- A(%) Moisture absorption level [3, 29]: 0.2%
- Appearance [3, 29]: Unchanged
- A(%) Moisture absorption level [3, 30]: 0.1%
- Appearance [3, 30]: Unchanged
- A(%) Moisture absorption level [3, 31]: 0.1%
- Appearance [3, 31]: Unchanged
- A(%) Moisture absorption level [3, 32]: 3.2%
- Appearance [3, 32]: Hardened
- A(%) Moisture absorption level [3, 33]: 11.0%
- Appearance [3, 33]: Hardened
- A(%) Moisture absorption level [3, 34]: 6.1%
- Appearance [3, 34]: Hardened
- A(%) Moisture absorption level [3, 35]: 4.4%
- Appearance [3, 35]: Hardened
- A(%) Moisture absorption level [3, 36]: 6.9%
- Appearance [3, 36]: p.d.
- A(%) Moisture absorption level [3, 37]: 42.1%
- Appearance [3, 37]: Deliquescence
- A(%) Moisture absorption level [3, 38]: 19.2%
- Appearance [3, 38]: Deliquescence
- A(%) Moisture absorption level [3, 39]: 11.8%
- Appearance [3, 39]: p.d.
- moisture absorption (in words) ([3]; relative humidity of 75% or lower, one to seven days): did not absorb moisture

— US7163711B2, “Crystalline α-D-glucosyl α-D-galactoside, saccharide composition comprising the same, process for producing the same, and uses thereof” (Kabushiki Kaisha Hayashibara Seibutsu Kagaku Kenkyujo, priority 2002, dated 2007)
